For 25 compounds, IC50 results are on record in US20100168102A9, “Amide Derivatives as Kinase Inhibitors” (Devgen NV, priority 2005, published 2010).

Read-outs that look alike come from different tables or passages of the source. Where only a bound is given, the exact number is not on record here.

For one assay, the target named is T1, PKC epsilon (Homo sapiens, UniProt Q02156).
T1 construct: purchased Invitrogen P2282
T1 sequence (Q02156 1-737): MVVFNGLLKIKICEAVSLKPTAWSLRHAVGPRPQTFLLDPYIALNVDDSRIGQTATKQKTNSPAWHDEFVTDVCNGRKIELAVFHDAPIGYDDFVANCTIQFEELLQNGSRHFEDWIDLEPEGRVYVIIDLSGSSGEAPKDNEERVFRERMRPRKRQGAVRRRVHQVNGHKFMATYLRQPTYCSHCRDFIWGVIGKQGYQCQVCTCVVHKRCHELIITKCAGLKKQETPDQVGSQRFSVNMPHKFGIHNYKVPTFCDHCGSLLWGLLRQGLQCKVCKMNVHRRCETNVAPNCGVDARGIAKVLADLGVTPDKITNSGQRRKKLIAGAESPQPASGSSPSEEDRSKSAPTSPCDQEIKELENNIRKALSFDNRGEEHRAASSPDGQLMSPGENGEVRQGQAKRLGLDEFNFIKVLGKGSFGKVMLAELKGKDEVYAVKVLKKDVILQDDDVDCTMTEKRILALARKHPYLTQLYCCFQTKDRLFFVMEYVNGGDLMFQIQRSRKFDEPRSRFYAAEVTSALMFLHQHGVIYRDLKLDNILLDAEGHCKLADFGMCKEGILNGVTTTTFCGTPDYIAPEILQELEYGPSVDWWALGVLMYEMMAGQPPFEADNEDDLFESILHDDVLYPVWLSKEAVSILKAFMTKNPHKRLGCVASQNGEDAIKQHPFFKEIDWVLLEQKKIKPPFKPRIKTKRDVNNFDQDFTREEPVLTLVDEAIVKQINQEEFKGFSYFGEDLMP
Kind of assay: Biochemical assay for PKC epsilon (fluorescence polarization, Protein Kinase C Assay Kit, Red). The conditions noted are these: read-out: IC50 μM PKCε. In a few lines: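 PKC epsilon at 10 ng/ml final was preincubated 30 min at room temperature with compound in HEPES pH 7.4 with DTT and Triton X-100. ATP/protein substrate was then added in buffer with MgCl2 and CaCl2 for 80 min. The reaction was stopped with EDTA, phosphorylation was detected by fluorescence polarization with rhodamine tracer and anti-phosphoserine antibody, and IC50 values came from curve fits.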
Background: Polarisation of emitted light reports the rotation of a fluorescent probe.

The next assay deals with T2, human ROCKα/ROCKII mix (Homo sapiens, UniProt O75116).
T2 construct: purchased Upstate Biotechnology 14-451
Kind of assay: Biochemical assay for ROCK (fluorescence polarization, ROCK IMAP Kit).

Where [1] appears, read: Table 2, compounds of Formula XIII.
Where [2] appears, read: compounds of Formula XIV, Table 3.

T2 sequence (O75116 11-552 limits assumed): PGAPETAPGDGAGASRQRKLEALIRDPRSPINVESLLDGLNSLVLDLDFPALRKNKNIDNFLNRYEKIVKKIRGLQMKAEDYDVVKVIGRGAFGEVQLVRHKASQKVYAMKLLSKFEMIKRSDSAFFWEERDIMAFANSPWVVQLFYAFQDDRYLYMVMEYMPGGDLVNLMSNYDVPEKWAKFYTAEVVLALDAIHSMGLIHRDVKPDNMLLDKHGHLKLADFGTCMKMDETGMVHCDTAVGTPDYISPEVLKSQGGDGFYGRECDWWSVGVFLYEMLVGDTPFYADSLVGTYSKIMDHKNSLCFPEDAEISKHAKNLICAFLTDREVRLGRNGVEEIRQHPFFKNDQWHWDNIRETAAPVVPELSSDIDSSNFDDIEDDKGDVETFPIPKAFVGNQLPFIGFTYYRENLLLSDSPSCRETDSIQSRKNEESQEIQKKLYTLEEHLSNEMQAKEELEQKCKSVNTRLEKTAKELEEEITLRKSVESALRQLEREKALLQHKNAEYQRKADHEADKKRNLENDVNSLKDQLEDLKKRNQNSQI

Broadly, the IC50 is the concentration at which inhibition is half-maximal. As to `NC(CNC(=S)Nc1ccc(Cl)cc1)c1ccc(C(=O)Nc2ccncc2)cc1` (centres unmarked) [Compound 13, 4-{1-amino-2-[3-(4-chloro-phenyl)-thioureido]-ethyl}-N-pyridin-4-yl-benzamide], the IC50 at PKC epsilon and against human ROCKα/ROCKII mix was 0.05 to 0.5 µM each time.

On to `NC(CNC(=O)c1cccc(Oc2ccccc2)c1)c1ccc(C(=O)Nc2ccncc2)cc1` (centres unmarked) [Compound 77, 4-[1-amino-2-(3-phenoxy-benzoylamino)-ethyl]-N-pyridin-4-yl-benzamide], for which the IC50 at PKC epsilon (setting [1]) lay in the range of 5 to 50 µM; on human ROCKα/ROCKII mix (setting [1]) it was 0.5 to 5 µM.

With “4-[1-amino-2-(N′-butyl- hydrazinocarbonyl)-ethyl]-N- pyridin-4-yl-benzamide [Compound 324]”, the half-inhibitory concentration (IC50) at PKC epsilon (setting [2]) fell in the range of 0.5 to 5 µM; against human ROCKα/ROCKII mix (setting [2]), 0.05 to 0.5 µM.

For the compound `NC(c1ccc(C(=O)Nc2ccncc2)cc1)C1CCCN1C(=O)Cc1c(Cl)cccc1Cl` (centres unmarked) [Compound 590, 4-(Amino-{1-[2-(2,6-dichloro-phenyl)-acetyl]-pyrrolidin-2-yl}-methyl)-N-pyridin-4-yl-benzamide], the IC50 at PKC epsilon was 5 to 50 µM; on human ROCKα/ROCKII mix, 0.5 to 5 µM.

As for `CN(CC(N)c1ccc(C(=O)Nc2ccncc2)cc1)C(=O)Cc1ccc(F)cc1F` (centres unmarked) [Compound 479, 4-(1-Amino-2-{[2-(2,4-difluoro-phenyl)-acetyl]-methyl-amino}-ethyl)-N-pyridin-4-yl-benzamide], the IC50 at PKC epsilon was 5 to 50 µM; against human ROCKα/ROCKII mix it was 0.5 to 5 µM.

Take `COc1ccc2[nH]c(C(=O)NCC(N)c3ccc(C(=O)Nc4ccncc4)cc3)cc2c1` (centres unmarked) [Compound 128, 5-Methoxy-1H-indole-2-carboxylic acid {2-amino-2-[4-(pyridin-4-ylcarbamoyl)-phenyl]-ethyl}-amide]: the IC50 on PKC epsilon (setting [1]) lay within 5 to 50 µM; against human ROCKα/ROCKII mix (setting [1]), 0.5 to 5 µM.

On to “4-{1-Amino-2-[(2- cyclopentyl-2-phenyl- acetyl)-methyl- amino]-ethyl}- N-pyridin-4-yl-benzamide [Compound 455]”, for which the IC50 on PKC epsilon and against human ROCKα/ROCKII mix was 5 to 50 µM in each case.

For the compound `CC(=NOCC(=O)NCC(N)c1ccc(C(=O)Nc2ccncc2)cc1)c1ccccc1` (centres unmarked) [Compound 60, 4-{1-Amino-2-[2-(1-phenyl-ethylideneaminooxy)-acetylamino]-ethyl}-N-pyridin-4-yl-benzamide], the IC50 on PKC epsilon (setting [1]) was 0.5 to 5 µM; on human ROCKα/ROCKII mix (setting [1]) it was 0.05 to 0.5 µM.

On to “4-[1-Amino-2-(2-methoxy- benzylcarbamoyl)-ethyl]- N-pyridin-4-yl-benzamide [Compound 236]”, for which the IC50 was in the range of 0.5 to 5 µM at PKC epsilon (setting [2]) and 0.05 to 0.5 µM against human ROCKα/ROCKII mix (setting [2]).

Turning to `NC(CNC(=O)C1CCC1)c1ccc(C(=O)Nc2ccncc2)cc1` (centres unmarked) [Compound 41, 4-[1-Amino-2-(cyclobutanecarbonyl-amino)-ethyl]-N-pyridin-4-yl-benzamide], the IC50 at PKC epsilon (setting [1]) and against human ROCKα/ROCKII mix (setting [1]) was 0.5 to 5 µM in each case.

Take `NC(CC(=O)NC1Cc2ccccc2C1)c1ccc(C(=O)Nc2ccncc2)cc1` (centres unmarked) [Compound 280, 4-[1-amino-2-(indan-2-ylcarbamoyl)-ethyl]-N-pyridin-4-yl-benzamide]: the figures for the IC50 at PKC epsilon (setting [2]) and at human ROCKα/ROCKII mix (setting [2]) were 0.5 to 5 µM and 0.05 to 0.5 µM, respectively.

As to `COc1cc(CC(=O)N2CCCC2C(N)c2ccc(C(=O)Nc3ccncc3)cc2)cc(OC)c1OC` (centres unmarked) [Compound 532, 4-(Amino-{1-[2-(3,4,5-trimethoxy-phenyl)-acetyl]-pyrrolidin-2-yl}-methyl)-N-pyridin-4-yl-benzamide], the values for the IC50 on PKC epsilon and against human ROCKα/ROCKII mix were 5 to 50 µM and 0.5 to 5 µM, respectively.

For the compound `NC(CC(=O)NCc1ccc(OC(F)(F)F)cc1)c1ccc(C(=O)Nc2ccncc2)cc1` (centres unmarked) [Compound 271, 4-[1-Amino-2-(4-trifluoromethoxy-benzylcarbamoyl)-ethyl]-N-pyridin-4-yl-benzamide], the values for the IC50 at PKC epsilon (setting [2]) and at human ROCKα/ROCKII mix (setting [2]) were 0.5 to 5 µM and 0.05 to 0.5 µM, respectively.

Regarding `CC(C)(C(=O)NC[C@H](N)c1ccc(C(=O)Nc2ccncc2)cc1)c1ccc(Cl)cc1` [Compound 400, 4-{(R)-1-Amino-2-[2-(4-chloro-phenyl)-2-methyl-propionylamino]-ethyl}-N-pyridin-4-yl-benzamide], the IC50 on PKC epsilon and at human ROCKα/ROCKII mix was 0.5 to 5 µM each time.

In the case of `CCNC(=O)CC(N)c1ccc(C(=O)Nc2ccncc2)cc1` (centres unmarked) [Compound 169], the IC50 was in the range of 0.5 to 5 µM on PKC epsilon (setting [2]) and 0.05 to 0.5 µM against human ROCKα/ROCKII mix (setting [2]).

As to `CN(CC(N)c1ccc(C(=O)Nc2ccncc2)cc1)C(=O)C1CCOc2ccc(Cl)cc21` (centres unmarked) [Compound 515, 6-Chloro-chroman-4-carboxylic acid {2-amino-2-[4-(pyridin-4-ylcarbamoyl)-phenyl]-ethyl}-methyl-amide], the figures for the IC50 at PKC epsilon and on human ROCKα/ROCKII mix were 5 to 50 µM and 0.5 to 5 µM, respectively.

In the case of `NC(CNC(=O)C1CCCC1)c1ccc(C(=O)Nc2ccncc2)cc1` (centres unmarked) [Compound 42, 4-[1-Amino-2-(cyclopentanecarbonyl-amino)-ethyl]-N-pyridin-4-yl-benzamide], the IC50 on PKC epsilon (setting [1]) and on human ROCKα/ROCKII mix (setting [1]) was 0.5 to 5 µM each time.

Take `Nc1c(C(=O)NCC(N)c2ccc(C(=O)Nc3ccncc3)cc2)cnn1-c1ccc(F)cc1` (centres unmarked) [Compound 123, 5-Amino-1-(4-fluorophenyl)-1H-pyrazole-4-carboxylic acid {2-amino-2-[4-(pyridin-4-ylcarbamoyl)-phenyl]-ethyl}-amide]: the IC50 at PKC epsilon (setting [1]) fell in the range of 5 to 50 µM; on human ROCKα/ROCKII mix (setting [1]), 0.5 to 5 µM.

On to `NC(CNC(=O)C1(c2ccc(F)c(F)c2)CC1)c1ccc(C(=O)Nc2ccncc2)cc1` (centres unmarked) [Compound 377, 4-(1-Amino-2-{[1-(3,4-difluoro-phenyl)-cyclopropanecarbonyl]-amino}-ethyl)-N-pyridin-4-yl-benzamide], for which the figures for the IC50 at PKC epsilon (setting [1]) and at human ROCKα/ROCKII mix (setting [1]) were < 0.05 µM and 0.05 to 0.5 µM, respectively.

In the case of `NC(CNC(=O)C1(c2ccc(F)c(F)c2)CCC1)c1ccc(C(=O)Nc2ccncc2)cc1` (centres unmarked) [Compound 378, 4-(1-Amino-2-{[1-(3,4-difluoro-phenyl)-cyclobutanecarbonyl]-amino}-ethyl)-N-pyridin-4-yl-benzamide], the IC50 at PKC epsilon (setting [1]) was < 0.05 µM; on human ROCKα/ROCKII mix (setting [1]), 0.05 to 0.5 µM.

For the compound “4-{1-Amino-2-[(4-methoxy- cyclohexanecarbonyl)-amino]-ethyl}- N-pyridin-4-yl-benzamide [Compound 44]”, the IC50 on PKC epsilon (setting [1]) lay within 5 to 50 µM; against human ROCKα/ROCKII mix (setting [1]) it was 0.5 to 5 µM.

Turning to “4-[1-amino-2-(cyclopropyl- methylcarbamoyl)-ethyl]-N- pyridin-4-yl-benzamide [Compound 171]”, the IC50 on PKC epsilon (setting [2]) lay within 0.5 to 5 µM; on human ROCKα/ROCKII mix (setting [2]), 0.05 to 0.5 µM.

As for `NC(c1ccc(C(=O)Nc2ccncc2)cc1)C1CCCN1C(=O)C1(c2ccc(F)cc2)CCCC1` (centres unmarked) [Compound 576, 4-(Amino-{1-[1-(4-fluoro-phenyl)-cyclopentanecarbonyl]-pyrrolidin-2-yl}-methyl)-N-pyridin-4-yl-benzamide], the IC50 at PKC epsilon and on human ROCKα/ROCKII mix was 0.5 to 5 µM throughout.

For the compound `NC(CNC(=O)c1ccc2[nH]nnc2c1)c1ccc(C(=O)Nc2ccncc2)cc1` (centres unmarked) [Compound 127, 1H-Benzotriazole-5-carboxylic acid {2-amino-2-[4-(pyridin-4-ylcarbamoyl)-phenyl]-ethyl}-amide], the figures for the IC50 on PKC epsilon (setting [1]) and on human ROCKα/ROCKII mix (setting [1]) were 5 to 50 µM and 0.5 to 5 µM, respectively.

Turning to `NC(CNC(=O)Nc1ccc(-c2ccccc2)cc1)c1ccc(C(=O)Nc2ccncc2)cc1` (centres unmarked) [Compound 22, 4-[1-amino-2-(3-biphenyl-4-yl-ureido)-ethyl]-N-pyridin-4-yl-benzamide], the IC50 on PKC epsilon and at human ROCKα/ROCKII mix was 0.5 to 5 µM in each case.
